Results from patent US20170007669A1, “PEPTIDE-MEDIATED DELIVERY OF ACTIVE AGENTS ACROSS THE BLOOD-BRAIN BARRIER” (Mayo Foundation for Medical Education and Research, priority 2015, published 2017).
Values belong to the molecule of their own block, whether it stands above or below them. Where no end group is shown, it is not given here.

Tests used:
[1] = Residence time of EB dye in brain following transportation by the peptide; type: in vivo, mice; settings: EB 10 min after 300 μg K16ApoE
Experimental: A series of mice were administered 300 μg of K16ApoE followed by administration of ˜40 μL 2% EB 10 min after administration of the peptide. As a control, only EB was injected, cardiac perfusion was done 6 hours after EB injection, followed by collection of brain. For all other mice, perfusion and collection of brains was performed 15 min, 30 min, 1 h, 2 h, 4 h, 6 h, 12, h, and 24 h following administration of EB.

[2] = Tissue distribution of Evans Blue (EB) after delivery via K16ApoE; type: in vivo, mice; settings: tissues 1 h after EB
Experimental: Mice were injected with various amounts of K16ApoE peptide (0 μg, 150 μg, 100 μg, 75 μg, 50 μg, 25 and μg) first. EB (40 μL of a 2% solution was injected 10 min after injection of the peptide. Tissues (brains, lungs, heart, liver, spleen and kidney) were collected 1 h after EB delivery. All injections were through the femoral vein.

[3] = test system: blood-brain barrier; assay: Transportation of Evan's Blue (EB) dye across the BBB after IV injection of peptide; type: in vivo, mouse; settings: for EB dye in brain: EB 10 min later, brain collected 1 h after EB
Experimental: To explore whether K16ApoE (SEQ. ID. NO: 42) compromises integrity of the BBB, the peptide was first injected by IV followed by injection of Evan's Blue (EB; a routinely used small molecule blue dye with a molecular weight of 960.81) by IV into the femoral vein of a mouse. Cardiac perfusion was performed and the brains of the mice were removed and evaluated approximately 2 hours following injection of the dye. As controls, a peptide consisting of 16 lysine residues (K16) and a 20-amino acid peptide comprising the LDLR-binding domain of ApoE (ApoE-FITC; (SEQ ID NO:13)), were used. The particulars of each administration are as follows: • 1) 67.5 nanomoles of K16 injected first, then ˜40 μL 2% EB was injected. • 2) Same as 1 but K16 and EB mixed prior to injection. • 3) 67.5 nanomoles of ApoE-FITC injected first, then ˜40 μL 2% EB was injected. • 4) Same as 3 but ApoE-FITC peptide and EB was mixed prior to injection. • 5) 67.5 nanomoles of K16ApoE injected first, then ˜40 μL 2% EB was injected. • 6) Same as 5 but K16ApoE peptide and EB was mixed first before injection.
Using the method described in Example 1, various amounts of K16ApoE (SEQ. ID. NO: 42) was injected followed by administration of ˜40 μL 2% EB. The particulars of each administration are as follows: • 1) EB alone. • 2) 50 μg (11.25 nanomoles) K16ApoE first, followed by administration of EB. • 3) 100 μg (22.5 nanomoles) K16ApoE first, followed by administration of EB. • 4) 200 μg (45 nanomoles) K16ApoE first, followed by administration of EB. • 5) 300 μg (67.5 nanomoles) K16ApoE first, followed by administration of EB.
˜40 μL of 2% EB was injected 10 min after injection of various amounts of K16ApoE (75 μg, 100 μg, 150 μg, 250 μg, and 300 μg) or K26ApoE (25 μg, 50 μg, 75 μg, 100 μg, 125 μg, and 150 μg). K26ApoE (SEQ ID NO: 139) having the sequence:
Brain tissue as was collected 1 h following EB injection. All injections were at the femoral vein.

- time post EB administration from which dye is observed in brain [1]: 15 min
- time EB is retained well in the brain ([1]; dye remains intense): up to 4 h
- time EB is probably retained in the brain (less intense dye) ([1]; longest time point tested): up to 24 h
Molecule: Cc1cc(-c2ccc(/N=N/c3ccc4c(S(=O)(=O)[O-])cc(S(=O)(=O)[O-])c(N)c4c3O)c(C)c2)ccc1/N=N/c1ccc2c(S(=O)(=O)[O-])cc(S(=O)(=O)[O-])c(N)c2c1O.[Na+].[Na+].[Na+].[Na+] [EB, Evan's Blue]
- EB stain in organs ([2]; EB injected without K16ApoE): Kidney, spleen, liver and heart show some EB-stain

Molecule: KKKKKKKKKKKKKKKKKKKKKKKKKK- LRVRLASHLRKLRKRLLRDA (KKKKKKKKKKKKKKKKKKKKKKKKKKLRVRLASHLRKLRKRLLRDA) [K26ApoE]
- EB dye in brain ([3]; 25 μg peptide): no dye was observed
- EB dye in brain ([3]; 50 μg peptide): only a small amount of dye present
- EB dye in brain ([3]; 75 μg peptide): Increasing EB is observed
- effectiveness in delivering EB to the brain relative to K16ApoE ([3]; comparison of peptide amounts needed): approximately two-fold

Molecule: KKKKKKKKKKKKKKKKLRVRLASHLRKLRKRLLRDA [K16ApoE, KKKKKKKKKKKKKKKKLRVRLASHLRKLRKRLLRDA]
- EB in brain ([2]; 0-150 μg K16ApoE, EB 10 min later): EB goes into brain only after injection of the peptide
- EB stain in organs ([2]; EB injected after K16ApoE injection): Kidney, spleen and liver are stained with EB
